{
  "source": "patent US12637424B2",
  "about": "“Pharmaceutical salt of an arylpyrrole derivative” (SENTINEL ONCOLOGY LIMITED, priority 2020, dated 2026)",
  "assay_in_all_cases": "DiscoverX KinomeScreen competition binding assay (kinase selectivity panel)",
  "key": {"[1]": {"target": "T1, panel of ninety-seven kinases (Homo sapiens, UniProt Q05397)", "T1 construct": "purchased DiscoverX; host or cells: E. coli (BL21-derived, T7 phage display) or HEK-293", "T1 sequence (Q05397 whole entry)": "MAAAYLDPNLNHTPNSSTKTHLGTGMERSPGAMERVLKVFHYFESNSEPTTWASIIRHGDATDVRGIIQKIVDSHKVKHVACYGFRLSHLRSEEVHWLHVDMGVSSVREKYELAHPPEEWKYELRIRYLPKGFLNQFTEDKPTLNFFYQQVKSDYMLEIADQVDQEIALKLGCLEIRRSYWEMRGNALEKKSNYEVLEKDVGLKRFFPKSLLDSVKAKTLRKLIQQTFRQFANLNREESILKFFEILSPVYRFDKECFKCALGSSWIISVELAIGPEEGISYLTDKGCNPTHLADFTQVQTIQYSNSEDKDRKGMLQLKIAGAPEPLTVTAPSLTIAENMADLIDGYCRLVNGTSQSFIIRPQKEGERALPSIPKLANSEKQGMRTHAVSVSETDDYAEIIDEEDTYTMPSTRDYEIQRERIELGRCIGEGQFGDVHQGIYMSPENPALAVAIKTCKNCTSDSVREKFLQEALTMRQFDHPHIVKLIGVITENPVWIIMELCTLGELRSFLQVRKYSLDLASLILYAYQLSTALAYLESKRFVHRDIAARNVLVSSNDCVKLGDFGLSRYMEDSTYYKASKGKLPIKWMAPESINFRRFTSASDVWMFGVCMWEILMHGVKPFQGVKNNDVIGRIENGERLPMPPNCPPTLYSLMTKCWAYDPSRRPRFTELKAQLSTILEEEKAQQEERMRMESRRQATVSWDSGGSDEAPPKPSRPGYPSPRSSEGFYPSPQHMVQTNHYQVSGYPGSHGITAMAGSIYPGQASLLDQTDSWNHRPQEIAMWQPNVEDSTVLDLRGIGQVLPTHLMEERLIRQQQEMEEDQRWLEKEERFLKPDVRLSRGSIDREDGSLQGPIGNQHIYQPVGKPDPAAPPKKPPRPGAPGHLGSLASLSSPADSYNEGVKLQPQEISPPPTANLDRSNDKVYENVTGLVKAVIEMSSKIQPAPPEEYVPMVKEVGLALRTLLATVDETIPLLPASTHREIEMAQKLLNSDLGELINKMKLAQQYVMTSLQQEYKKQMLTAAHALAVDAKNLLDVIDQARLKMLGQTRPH", "settings": "PTK2; screened at 3000 nM", "outline": "(§1)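 Kinases on T7 phage (BL21-derived E. coli host) or DNA-tagged from HEK-293 cells compete between compound and a bead-immobilized biotinylated ligand. Captured kinase is eluted and quantified by qPCR. Compound is tested at 3000 nM (3 μM); binding is reported as % Ctrl, with DMSO as 100% and control compound as 0%.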"}, "[2]": {"target": "T2, panel of ninety-seven kinases (Homo sapiens, UniProt Q9H093)", "T2 construct": "purchased DiscoverX; host or cells: E. coli (BL21-derived, T7 phage display) or HEK-293", "settings": "NUAK2; screened at 3000 nM", "outline": "as §1"}, "[3]": {"target": "T3, panel of ninety-seven kinases (Homo sapiens, UniProt O60674)", "T3 construct": "purchased DiscoverX; host or cells: E. coli (BL21-derived, T7 phage display) or HEK-293", "settings": "JAK2; screened at 3000 nM", "outline": "as §1"}, "[4]": {"target": "T4, panel of ninety-seven kinases (Homo sapiens, UniProt P31749)", "T4 construct": "purchased DiscoverX; host or cells: E. coli (BL21-derived, T7 phage display) or HEK-293", "settings": "AKT1; screened at 3000 nM", "outline": "as §1"}, "[5]": {"target": "T5, panel of ninety-seven kinases (Homo sapiens, UniProt P27361)", "T5 construct": "purchased DiscoverX; host or cells: E. coli (BL21-derived, T7 phage display) or HEK-293", "settings": "MAPK3; screened at 3000 nM", "outline": "as §1"}, "[6]": {"target": "T6, panel of ninety-seven kinases (Homo sapiens, UniProt Q15303)", "T6 construct": "purchased DiscoverX; host or cells: E. coli (BL21-derived, T7 phage display) or HEK-293", "settings": "ERBB4; screened at 3000 nM", "outline": "as §1"}, "[7]": {"target": "T7, panel of ninety-seven kinases (Homo sapiens, UniProt P53779)", "T7 construct": "purchased DiscoverX; host or cells: E. coli (BL21-derived, T7 phage display) or HEK-293", "T7 sequence (P53779 whole entry)": "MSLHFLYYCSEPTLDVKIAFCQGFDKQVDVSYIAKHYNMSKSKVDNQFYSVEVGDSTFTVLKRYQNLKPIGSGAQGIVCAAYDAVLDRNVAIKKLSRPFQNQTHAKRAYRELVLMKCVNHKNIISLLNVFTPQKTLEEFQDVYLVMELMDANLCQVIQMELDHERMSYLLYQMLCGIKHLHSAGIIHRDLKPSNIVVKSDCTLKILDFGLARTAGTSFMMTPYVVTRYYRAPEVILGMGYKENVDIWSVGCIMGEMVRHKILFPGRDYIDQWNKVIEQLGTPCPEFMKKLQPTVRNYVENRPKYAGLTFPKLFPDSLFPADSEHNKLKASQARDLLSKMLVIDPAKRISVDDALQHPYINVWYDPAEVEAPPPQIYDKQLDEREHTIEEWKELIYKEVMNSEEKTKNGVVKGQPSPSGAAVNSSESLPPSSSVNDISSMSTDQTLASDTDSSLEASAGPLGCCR", "settings": "MAPK10; screened at 3000 nM", "outline": "as §1"}, "[8]": {"target": "T8, panel of ninety-seven kinases (Homo sapiens, UniProt P08581)", "T8 construct": "purchased DiscoverX; host or cells: E. coli (BL21-derived, T7 phage display) or HEK-293", "settings": "MET; screened at 3000 nM", "outline": "as §1"}, "[9]": {"target": "T9, panel of ninety-seven kinases (Homo sapiens, UniProt Q02156)", "T9 construct": "purchased DiscoverX; host or cells: E. coli (BL21-derived, T7 phage display) or HEK-293", "T9 sequence (Q02156 whole entry)": "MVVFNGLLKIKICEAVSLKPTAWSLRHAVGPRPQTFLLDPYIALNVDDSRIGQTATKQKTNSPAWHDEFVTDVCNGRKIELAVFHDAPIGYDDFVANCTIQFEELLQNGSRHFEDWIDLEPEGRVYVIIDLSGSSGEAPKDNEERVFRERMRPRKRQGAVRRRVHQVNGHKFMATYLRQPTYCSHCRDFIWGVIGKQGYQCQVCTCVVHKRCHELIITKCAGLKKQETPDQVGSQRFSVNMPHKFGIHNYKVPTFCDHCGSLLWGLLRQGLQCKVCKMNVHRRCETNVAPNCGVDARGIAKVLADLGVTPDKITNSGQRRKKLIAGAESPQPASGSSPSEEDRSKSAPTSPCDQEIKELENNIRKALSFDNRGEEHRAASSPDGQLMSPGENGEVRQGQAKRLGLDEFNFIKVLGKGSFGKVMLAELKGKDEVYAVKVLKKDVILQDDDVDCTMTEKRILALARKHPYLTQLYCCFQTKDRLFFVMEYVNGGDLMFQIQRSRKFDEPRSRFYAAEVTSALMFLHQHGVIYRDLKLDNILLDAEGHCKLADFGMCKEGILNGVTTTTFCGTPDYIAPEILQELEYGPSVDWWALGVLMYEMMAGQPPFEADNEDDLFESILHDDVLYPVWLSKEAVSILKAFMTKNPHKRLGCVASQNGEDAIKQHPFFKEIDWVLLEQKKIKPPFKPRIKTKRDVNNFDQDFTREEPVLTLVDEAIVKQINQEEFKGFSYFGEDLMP", "settings": "PRKCE; screened at 3000 nM", "outline": "as §1"}, "[10]": {"target": "T10, panel of ninety-seven kinases (Homo sapiens, UniProt Q16539)", "T10 construct": "purchased DiscoverX; host or cells: E. coli (BL21-derived, T7 phage display) or HEK-293", "T10 sequence (Q16539 whole entry)": "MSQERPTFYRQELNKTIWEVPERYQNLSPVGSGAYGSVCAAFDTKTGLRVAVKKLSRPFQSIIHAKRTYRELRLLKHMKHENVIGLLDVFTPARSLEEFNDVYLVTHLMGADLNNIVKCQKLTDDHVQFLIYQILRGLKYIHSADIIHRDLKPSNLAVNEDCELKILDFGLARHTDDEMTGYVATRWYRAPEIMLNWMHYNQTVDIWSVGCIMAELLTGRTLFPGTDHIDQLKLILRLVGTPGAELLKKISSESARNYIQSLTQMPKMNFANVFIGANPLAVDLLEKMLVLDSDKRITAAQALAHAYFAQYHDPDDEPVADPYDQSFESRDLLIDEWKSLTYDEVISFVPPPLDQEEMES", "settings": "MAPK14; screened at 3000 nM", "outline": "as §1"}, "[11]": {"target": "T11, panel of ninety-seven kinases (Homo sapiens, UniProt P29317)", "T11 construct": "purchased DiscoverX; host or cells: E. coli (BL21-derived, T7 phage display) or HEK-293", "T11 sequence (P29317 24-976)": "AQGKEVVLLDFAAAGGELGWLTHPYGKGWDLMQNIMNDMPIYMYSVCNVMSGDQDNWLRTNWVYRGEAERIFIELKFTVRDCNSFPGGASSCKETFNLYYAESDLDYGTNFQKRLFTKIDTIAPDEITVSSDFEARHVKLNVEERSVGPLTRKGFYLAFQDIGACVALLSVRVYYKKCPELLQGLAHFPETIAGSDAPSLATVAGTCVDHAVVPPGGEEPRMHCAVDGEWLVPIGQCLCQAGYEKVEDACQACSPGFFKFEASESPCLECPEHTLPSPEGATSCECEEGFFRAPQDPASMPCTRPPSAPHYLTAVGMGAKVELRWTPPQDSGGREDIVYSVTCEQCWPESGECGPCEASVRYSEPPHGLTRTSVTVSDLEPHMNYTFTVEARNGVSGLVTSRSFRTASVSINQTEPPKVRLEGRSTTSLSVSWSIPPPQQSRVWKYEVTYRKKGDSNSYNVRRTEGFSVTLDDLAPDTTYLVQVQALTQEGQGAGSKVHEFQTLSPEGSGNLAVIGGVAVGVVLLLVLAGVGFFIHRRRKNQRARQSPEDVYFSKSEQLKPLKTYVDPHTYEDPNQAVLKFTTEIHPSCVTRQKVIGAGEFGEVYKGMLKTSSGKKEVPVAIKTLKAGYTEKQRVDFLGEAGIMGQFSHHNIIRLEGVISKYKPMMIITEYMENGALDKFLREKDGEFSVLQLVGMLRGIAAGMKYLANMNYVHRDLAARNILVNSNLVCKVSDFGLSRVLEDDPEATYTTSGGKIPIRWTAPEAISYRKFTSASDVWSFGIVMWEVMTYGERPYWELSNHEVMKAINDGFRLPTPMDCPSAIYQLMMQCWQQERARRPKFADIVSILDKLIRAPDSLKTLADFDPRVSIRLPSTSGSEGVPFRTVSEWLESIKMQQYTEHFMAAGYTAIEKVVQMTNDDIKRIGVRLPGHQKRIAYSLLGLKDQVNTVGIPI", "settings": "EPHA2; screened at 3000 nM", "outline": "as §1"}, "[12]": {"target": "T12, panel of ninety-seven kinases (Homo sapiens, UniProt O75116)", "T12 construct": "purchased DiscoverX; host or cells: E. coli (BL21-derived, T7 phage display) or HEK-293", "settings": "ROCK2; screened at 3000 nM", "outline": "as §1"}, "[13]": {"target": "T13, panel of ninety-seven kinases (Homo sapiens, UniProt P48730)", "T13 construct": "purchased DiscoverX; host or cells: E. coli (BL21-derived, T7 phage display) or HEK-293", "settings": "CSNK1D; screened at 3000 nM", "outline": "as §1"}, "[14]": {"target": "T14, panel of ninety-seven kinases (Homo sapiens, UniProt Q02763)", "T14 construct": "purchased DiscoverX; host or cells: E. coli (BL21-derived, T7 phage display) or HEK-293", "settings": "TEK; screened at 3000 nM", "outline": "as §1"}, "[15]": {"target": "T15, panel of ninety-seven kinases (Homo sapiens, UniProt P09619)", "T15 construct": "purchased DiscoverX; host or cells: E. coli (BL21-derived, T7 phage display) or HEK-293", "T15 sequence (P09619 33-1106)": "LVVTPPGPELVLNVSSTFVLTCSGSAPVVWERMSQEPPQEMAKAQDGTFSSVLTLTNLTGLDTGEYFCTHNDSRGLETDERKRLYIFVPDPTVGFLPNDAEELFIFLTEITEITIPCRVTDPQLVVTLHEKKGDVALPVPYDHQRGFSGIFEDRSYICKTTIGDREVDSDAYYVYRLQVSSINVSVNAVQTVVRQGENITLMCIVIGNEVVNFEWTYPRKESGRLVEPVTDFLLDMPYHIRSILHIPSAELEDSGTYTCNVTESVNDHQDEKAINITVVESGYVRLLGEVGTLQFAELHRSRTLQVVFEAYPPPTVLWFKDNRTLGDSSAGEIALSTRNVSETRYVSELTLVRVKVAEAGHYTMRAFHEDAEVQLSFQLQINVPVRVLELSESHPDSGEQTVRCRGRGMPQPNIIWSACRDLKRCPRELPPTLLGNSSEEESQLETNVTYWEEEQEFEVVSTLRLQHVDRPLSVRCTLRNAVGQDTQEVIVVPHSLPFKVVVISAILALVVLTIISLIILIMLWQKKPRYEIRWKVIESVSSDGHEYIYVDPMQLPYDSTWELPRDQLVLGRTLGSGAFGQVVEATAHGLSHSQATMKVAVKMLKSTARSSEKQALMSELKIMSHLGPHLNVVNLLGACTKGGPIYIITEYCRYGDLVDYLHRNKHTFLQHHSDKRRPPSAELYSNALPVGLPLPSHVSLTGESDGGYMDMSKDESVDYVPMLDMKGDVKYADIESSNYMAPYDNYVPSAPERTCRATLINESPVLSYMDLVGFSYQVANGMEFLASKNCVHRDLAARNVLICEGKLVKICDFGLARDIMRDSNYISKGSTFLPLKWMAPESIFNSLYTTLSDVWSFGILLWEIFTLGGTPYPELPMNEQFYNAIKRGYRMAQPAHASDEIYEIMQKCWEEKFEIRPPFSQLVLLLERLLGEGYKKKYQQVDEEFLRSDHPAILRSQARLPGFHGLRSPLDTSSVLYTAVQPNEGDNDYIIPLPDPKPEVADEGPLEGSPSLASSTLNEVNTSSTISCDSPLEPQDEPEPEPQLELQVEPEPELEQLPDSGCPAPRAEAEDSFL", "settings": "PDGFRB; screened at 3000 nM", "outline": "as §1"}, "[16]": {"target": "T16, panel of ninety-seven kinases (Homo sapiens, UniProt P42336)", "T16 construct": "purchased DiscoverX; host or cells: E. coli (BL21-derived, T7 phage display) or HEK-293", "settings": "PIK3CA; screened at 3000 nM", "outline": "as §1"}, "[17]": {"target": "T17, panel of ninety-seven kinases (Homo sapiens, UniProt Q9Y6R4)", "T17 construct": "purchased DiscoverX; host or cells: E. coli (BL21-derived, T7 phage display) or HEK-293", "settings": "MAP3K4; screened at 3000 nM", "outline": "as §1"}, "[18]": {"target": "T18, panel of ninety-seven kinases (Homo sapiens, UniProt P36896)", "T18 construct": "purchased DiscoverX; host or cells: E. coli (BL21-derived, T7 phage display) or HEK-293", "settings": "ACVR1B; screened at 3000 nM", "outline": "as §1"}, "[19]": {"target": "T19, panel of ninety-seven kinases (Homo sapiens, UniProt Q86V86)", "T19 construct": "purchased DiscoverX; host or cells: E. coli (BL21-derived, T7 phage display) or HEK-293", "settings": "PIM3; screened at 3000 nM", "outline": "as §1"}},
  "data": [
    {"smiles": "CN(C)CCNC(=O)c1ccc(-c2ccc(-c3ccc(Cl)cc3)n2-c2ccccc2C(F)(F)F)cc1", "note": "(single isomer, unassigned) [Atropisomer A-2]", "values": [
      {"measurement": "% Ctrl @ 3 μM", "setting": "[1]", "result": 98, "unit": "% Ctrl"},
      {"measurement": "% Ctrl @ 3 μM", "setting": "[2]", "result": 99, "unit": "% Ctrl"},
      {"measurement": "% Ctrl @ 3 μM", "setting": "[3]", "result": 80, "unit": "% Ctrl"},
      {"measurement": "% Ctrl @ 3 μM", "setting": "[4]", "result": 98, "unit": "% Ctrl"},
      {"measurement": "% Ctrl @ 3 μM", "setting": "[5]", "result": 99, "unit": "% Ctrl"},
      {"measurement": "% Ctrl @ 3 μM", "setting": "[6]", "result": 99, "unit": "% Ctrl"},
      {"measurement": "% Ctrl @ 3 μM", "setting": "[7]", "result": 93, "unit": "% Ctrl"},
      {"measurement": "% Ctrl @ 3 μM", "setting": "[8]", "result": 100, "unit": "% Ctrl"},
      {"measurement": "% Ctrl @ 3 μM", "setting": "[9]", "result": 99, "unit": "% Ctrl"},
      {"measurement": "% Ctrl @ 3 μM", "setting": "[10]", "result": 100, "unit": "% Ctrl"},
      {"measurement": "% Ctrl @ 3 μM", "setting": "[11]", "result": 100, "unit": "% Ctrl"},
      {"measurement": "% Ctrl @ 3 μM", "setting": "[12]", "result": 88, "unit": "% Ctrl"},
      {"measurement": "% Ctrl @ 3 μM", "setting": "[13]", "result": 91, "unit": "% Ctrl"},
      {"measurement": "% Ctrl @ 3 μM", "setting": "[14]", "result": 99, "unit": "% Ctrl"},
      {"measurement": "% Ctrl @ 3 μM", "setting": "[15]", "result": 100, "unit": "% Ctrl"},
      {"measurement": "% Ctrl @ 3 μM", "setting": "[16]", "result": 100, "unit": "% Ctrl"},
      {"measurement": "% Ctrl @ 3 μM", "setting": "[17]", "result": 93, "unit": "% Ctrl"},
      {"measurement": "% Ctrl @ 3 μM", "setting": "[18]", "result": 96, "unit": "% Ctrl"},
      {"measurement": "% Ctrl @ 3 μM", "setting": "[19]", "result": 98, "unit": "% Ctrl"}
    ]}
  ]
}
